In the NIST ThermoML archive (doi:10.1021/je800786k):
± gives the expanded uncertainty stated by the source.

Settings: Liquid, Vibrating tube method

CCCCCCC(C)N (stereo not given) [1-methylheptylamine]
Settings	mass density [kg/m3]
293.15 K, 100 kPa	772 ± 1
293.15 K, 10000 kPa	778.7 ± 1.1
293.15 K, 20000 kPa	784.8 ± 1.1
293.15 K, 30000 kPa	790.6 ± 1.1
293.15 K, 40000 kPa	796.1 ± 1.1
293.15 K, 50000 kPa	801.2 ± 1.1
293.15 K, 60000 kPa	806 ± 1.2
293.15 K, 70000 kPa	810.6 ± 1.2
293.15 K, 80000 kPa	815 ± 1.2
293.15 K, 90000 kPa	819.1 ± 1.2
293.15 K, 100000 kPa	823.2 ± 1.3
293.15 K, 110000 kPa	826.9 ± 1.3
293.15 K, 120000 kPa	830.6 ± 1.3
293.15 K, 130000 kPa	834.2 ± 1.3
293.15 K, 140000 kPa	837.6 ± 1.4
303.15 K, 100 kPa	764 ± 1.1
303.15 K, 10000 kPa	771.3 ± 1.1
303.15 K, 20000 kPa	777.8 ± 1.1
303.15 K, 30000 kPa	783.8 ± 1.1
303.15 K, 40000 kPa	789.2 ± 1.1
303.15 K, 50000 kPa	794.5 ± 1.1
303.15 K, 60000 kPa	799.5 ± 1.2
303.15 K, 70000 kPa	804.2 ± 1.2
303.15 K, 80000 kPa	808.7 ± 1.2
303.15 K, 90000 kPa	813 ± 1.3
303.15 K, 100000 kPa	817.1 ± 1.3
303.15 K, 110000 kPa	821 ± 1.3
303.15 K, 120000 kPa	824.8 ± 1.3
303.15 K, 130000 kPa	828.5 ± 1.4
303.15 K, 140000 kPa	832 ± 1.4
313.15 K, 100 kPa	755.8 ± 1.1
313.15 K, 10000 kPa	763.5 ± 1.1
313.15 K, 20000 kPa	770.4 ± 1.1
313.15 K, 30000 kPa	776.7 ± 1.1
313.15 K, 40000 kPa	782.5 ± 1.1
313.15 K, 50000 kPa	788.1 ± 1.1
313.15 K, 60000 kPa	793.2 ± 1.2
313.15 K, 70000 kPa	798.1 ± 1.2
313.15 K, 80000 kPa	802.7 ± 1.2
313.15 K, 90000 kPa	807.1 ± 1.3
313.15 K, 100000 kPa	811.4 ± 1.3
313.15 K, 110000 kPa	815.5 ± 1.3
313.15 K, 120000 kPa	819.4 ± 1.4
313.15 K, 130000 kPa	823.1 ± 1.4
313.15 K, 140000 kPa	826.7 ± 1.4
323.15 K, 100 kPa	748.1 ± 1.1
323.15 K, 10000 kPa	756 ± 1.1
323.15 K, 20000 kPa	763.2 ± 1.1
323.15 K, 30000 kPa	769.9 ± 1.1
323.15 K, 40000 kPa	776 ± 1.1
323.15 K, 50000 kPa	781.6 ± 1.2
323.15 K, 60000 kPa	787.1 ± 1.2
323.15 K, 70000 kPa	792.2 ± 1.2
323.15 K, 80000 kPa	797 ± 1.2
323.15 K, 90000 kPa	801.5 ± 1.3
323.15 K, 100000 kPa	805.9 ± 1.3
323.15 K, 110000 kPa	810.1 ± 1.3
323.15 K, 120000 kPa	814.1 ± 1.4
323.15 K, 130000 kPa	818 ± 1.4
323.15 K, 140000 kPa	821.6 ± 1.4
333.15 K, 100 kPa	739.6 ± 1.1
333.15 K, 10000 kPa	748.1 ± 1.1
333.15 K, 20000 kPa	755.5 ± 1.1
333.15 K, 30000 kPa	762.6 ± 1.1
333.15 K, 40000 kPa	769 ± 1.1
333.15 K, 50000 kPa	775 ± 1.2
333.15 K, 60000 kPa	780.6 ± 1.2
333.15 K, 70000 kPa	785.8 ± 1.2
333.15 K, 80000 kPa	790.9 ± 1.3
333.15 K, 90000 kPa	795.5 ± 1.3
333.15 K, 100000 kPa	800 ± 1.3
333.15 K, 110000 kPa	804.4 ± 1.4
333.15 K, 120000 kPa	808.5 ± 1.4
333.15 K, 130000 kPa	812.5 ± 1.4
333.15 K, 140000 kPa	816.3 ± 1.5
343.15 K, 100 kPa	731.5 ± 1.1
343.15 K, 10000 kPa	740.5 ± 1.1
343.15 K, 20000 kPa	748.6 ± 1.1
343.15 K, 30000 kPa	756 ± 1.1
343.15 K, 40000 kPa	762.7 ± 1.1
343.15 K, 50000 kPa	768.9 ± 1.2
343.15 K, 60000 kPa	774.7 ± 1.2
343.15 K, 70000 kPa	780.2 ± 1.2
343.15 K, 80000 kPa	785.3 ± 1.3
343.15 K, 90000 kPa	790.2 ± 1.3
343.15 K, 100000 kPa	794.9 ± 1.3
343.15 K, 110000 kPa	799.2 ± 1.4
343.15 K, 120000 kPa	803.4 ± 1.4
343.15 K, 130000 kPa	807.5 ± 1.4
343.15 K, 140000 kPa	811.4 ± 1.5
353.15 K, 100 kPa	723.2 ± 1.1
353.15 K, 10000 kPa	733 ± 1.1
353.15 K, 20000 kPa	741.6 ± 1.1
353.15 K, 30000 kPa	749.3 ± 1.1
353.15 K, 40000 kPa	756.2 ± 1.1
353.15 K, 50000 kPa	762.7 ± 1.2
353.15 K, 60000 kPa	768.7 ± 1.2
353.15 K, 70000 kPa	774.4 ± 1.2
353.15 K, 80000 kPa	779.7 ± 1.3
353.15 K, 90000 kPa	784.7 ± 1.3
353.15 K, 100000 kPa	789.5 ± 1.4
353.15 K, 110000 kPa	794.1 ± 1.4
353.15 K, 120000 kPa	798.4 ± 1.4
353.15 K, 130000 kPa	802.3 ± 1.5
353.15 K, 140000 kPa	806.3 ± 1.5
363.15 K, 100 kPa	714.7 ± 1.1
363.15 K, 10000 kPa	724.9 ± 1.1
363.15 K, 20000 kPa	734 ± 1.1
363.15 K, 30000 kPa	742 ± 1.1
363.15 K, 40000 kPa	749.3 ± 1.2
363.15 K, 50000 kPa	756.1 ± 1.2
363.15 K, 60000 kPa	762.4 ± 1.2
363.15 K, 70000 kPa	768.3 ± 1.3
363.15 K, 80000 kPa	773.8 ± 1.3
363.15 K, 90000 kPa	779 ± 1.3
363.15 K, 100000 kPa	783.9 ± 1.4
363.15 K, 110000 kPa	788.5 ± 1.4
363.15 K, 120000 kPa	793 ± 1.4
363.15 K, 130000 kPa	797.3 ± 1.5
363.15 K, 140000 kPa	801.4 ± 1.5
373.15 K, 100 kPa	706 ± 1.1
373.15 K, 10000 kPa	717.2 ± 1.1
373.15 K, 20000 kPa	726.6 ± 1.1
373.15 K, 30000 kPa	735.2 ± 1.1
373.15 K, 40000 kPa	742.9 ± 1.2
373.15 K, 50000 kPa	749.9 ± 1.2
373.15 K, 60000 kPa	756.8 ± 1.2
373.15 K, 70000 kPa	762.8 ± 1.3
373.15 K, 80000 kPa	768.5 ± 1.3
373.15 K, 90000 kPa	773.8 ± 1.3
373.15 K, 100000 kPa	778.9 ± 1.4
373.15 K, 110000 kPa	783.7 ± 1.4
373.15 K, 120000 kPa	788.3 ± 1.5
373.15 K, 130000 kPa	792.8 ± 1.5
373.15 K, 140000 kPa	796.8 ± 1.5
383.15 K, 100 kPa	697.6 ± 1.1
383.15 K, 10000 kPa	709.4 ± 1.1
383.15 K, 20000 kPa	719.5 ± 1.1
383.15 K, 30000 kPa	728.5 ± 1.1
383.15 K, 40000 kPa	736.4 ± 1.2
383.15 K, 50000 kPa	743.8 ± 1.2
383.15 K, 60000 kPa	750.6 ± 1.2
383.15 K, 70000 kPa	756.8 ± 1.3
383.15 K, 80000 kPa	762.7 ± 1.3
383.15 K, 90000 kPa	768.1 ± 1.4
383.15 K, 100000 kPa	773.3 ± 1.4
383.15 K, 110000 kPa	778.3 ± 1.4
383.15 K, 120000 kPa	783 ± 1.5
383.15 K, 130000 kPa	787.5 ± 1.5
383.15 K, 140000 kPa	791.8 ± 1.6
393.15 K, 100 kPa	689 ± 1.1
393.15 K, 10000 kPa	701.6 ± 1.1
393.15 K, 20000 kPa	712.3 ± 1.1
393.15 K, 30000 kPa	721.7 ± 1.2
393.15 K, 40000 kPa	730 ± 1.2
393.15 K, 50000 kPa	737.9 ± 1.2
393.15 K, 60000 kPa	744.9 ± 1.3
393.15 K, 70000 kPa	751.4 ± 1.3
393.15 K, 80000 kPa	757.5 ± 1.3
393.15 K, 90000 kPa	763.2 ± 1.4
393.15 K, 100000 kPa	768.6 ± 1.4
393.15 K, 110000 kPa	773.6 ± 1.4
393.15 K, 120000 kPa	778.4 ± 1.5
393.15 K, 130000 kPa	782.8 ± 1.5
393.15 K, 140000 kPa	787.2 ± 1.6
403.15 K, 100 kPa	680.1 ± 1.2
403.15 K, 10000 kPa	693.5 ± 1.2
403.15 K, 20000 kPa	705 ± 1.2
403.15 K, 30000 kPa	714.8 ± 1.2
403.15 K, 40000 kPa	723.5 ± 1.2
403.15 K, 50000 kPa	731.5 ± 1.2
403.15 K, 60000 kPa	738.7 ± 1.3
403.15 K, 70000 kPa	745.4 ± 1.3
403.15 K, 80000 kPa	751.6 ± 1.3
403.15 K, 90000 kPa	757.5 ± 1.4
403.15 K, 100000 kPa	763.1 ± 1.4
403.15 K, 110000 kPa	768.3 ± 1.5
403.15 K, 120000 kPa	773.2 ± 1.5
403.15 K, 130000 kPa	777.9 ± 1.5
403.15 K, 140000 kPa	782.4 ± 1.6
